We go through 17 compounds from patent publication US6576771B1, “Oxymethoxy-3-aryl-pyrone derivatives” (Bayer Aktiengesellschaft, priority 1995, dated 2003).

Data set [1] concerns Sphaerotheca fuliginea. As to the kind of experiment: Sphaerotheca test (cucumber) / protective. The conditions noted are these: active compound concentration 100 ppm, evaluation 10 days after inoculation.
Procedure: Solvent: 4.7 parts by weight of acetone
Emulsifier: 0.3 parts by weight of alkylaryl polyglycol ether
After the spray coating has dried on, the plants are dusted with conidia of the fungus Sphaerotheca fuliginea.
The plants are then placed in a greenhouse at 23 to 24° C. and at a relative atmospheric humidity of about 75%.
Evaluation is carried out 10 days after the inoculation.
Data set [2] relates to larvae of the green rice leafhopper (Nephotettix cincticeps). As to the kind of experiment: Nephotettix test. The settings on record: after 6 days; active compound concentration 0.1%; rice seedlings dipped. It is filed as in vivo. The method, then: Nephotettix Test Solvent: 7 parts by weight of dimethylformamide Emulsifier: 1 part by weight of alkylaryl polyglycol ether […] Rice seedlings (Oryzae sativa) are treated by being dipped into the preparation of the active compound of the desired concentration and are infested with larvae of the green rice leafhopper (Nephotettix cincticeps), while the seedlings are still moist.

Data set [3] concerns All larval stages of Lucilia cuprina (OP resistant). As to the kind of experiment: Test with fly larvae / development-inhibiting activity. It is filed as in vivo. The settings on record: active compound concentration 1000 ppm. The method, then: Test with Fly Larvae/Development-inhibiting Activity
Test animals: All larval stages of Lucilia cuprina (OP resistant) [Pupae and adults (without contact with the active compound)]
Solvent: 35 parts by weight of ethylene glycol monomethyl ether 35 parts by weight of nonylphenol polyglycol ether
For each concentration, 30 to 50 larvae are introduced into test tubes containing horse meat (1 cm^3), onto which […] of the dilution under test are pipetted. The glass test tubes are placed in plastic beakers which have bottoms covered with sea sand and are kept in an air-conditioned room (26° C.±1.5° C., 70% relative humidity ±10%). The action is inspected after 24 hours and 48 hours (larvicidal action). After emigration of the larvae (approximately 72 h), the test tubes are removed and perforated plastic lids are placed on the beakers. After 1½ times the development period (emergence of the control flies), the emerged flies and the pupae/pupal cases are counted.
The criterion of activity used is the occurrence of death of the treated larvae after 48 h (larvicidal effect), or the inhibition of adult emergence from the pupae, or inhibition of pupal formation. The criterion used for the in-vitro activity of a substance is inhibition of fly development, or cessation of development prior to the adult stage. 100% larvicidal activity means that all larvae have died after 48 hours. 100% development inhibition activity means that no adult flies emerged.

Data set [4] concerns black bean aphids (Aphis fabae). Description: Limit concentration test / root-systemic action. It is filed as in vivo. The conditions noted are these: active compound concentration 20 ppm in soil; beans (Vicia faba); leaves infested after 7 days, evaluated after a further 2 days. The source says:
Limit Concentration Test/Root-systemic Action Test insect: Aphis fabae Solvent: 4 parts by weight of acetone Emulsifier: 1 part by weight of alkylaryl polyglycol ether […] The preparation of active compound is intimately mixed with soil. The concentration of the active compound in the preparation is of no importance in practise, only the amount by weight of active compound per unit volume of soil, which is given in ppm (=mg/l), being decisive. The treated soil is transferred into pots and these are planted with beans (Vicia faba). The active compound can in this way be taken up from the soil by the roots of the plants and be transported into the leaves. […] After a further 2 days, the evaluation is made by counting or estimating the dead animals. The root-systemic action of the active compound is deduced from the destruction figures.

For data set [5], the system named is caterpillars of the owlet moth (Spodoptera frugiperda). As to the kind of experiment: Spodoptera test. It is filed as in vivo. The settings on record: after 7 days; active compound concentration 0.1%; cabbage leaves dipped. As for the experimental part: Solvent: 7 parts by weight of dimethylformamide
(§1) Emulsifier: 1 part by weight of alkylaryl polyglycol ether
Cabbage leaves (Brassica oleracea) are treated by being dipped into the preparation of the active compound of the desired concentration and are infested with caterpillars of the owlet moth (Spodoptera frugiperda), while the leaves are still moist.
After the specified period of time, the destruction in % is determined. 100% means that all the caterpillars have been killed; 0% means that none of the caterpillars have been killed.

In data set [6] the test system is common spider mite (Tetranychus urticae). As to the kind of experiment: Tetranychus test (resistance). It is filed as in vivo. The settings on record: after 13 days; active compound concentration 0.01%; bean plants dipped. As for the experimental part:
Tetranychus Test (Resistance)
Solvent: 3 parts by weight of dimethylformamide
as §1
After the specified period of time, the destruction in % is determined. 100% means that all the spider mites have been killed 0% means that none of the spider mites have been killed.

In data set [7] the test system is mustard beetle larvae (Phaedon cochleariae). Description: Phaedon larvae test. It is filed as in vivo. The conditions noted are these: after 7 days; active compound concentration 0.01%; cabbage leaves dipped. As for the experimental part:
Phaedon Larvae Test Solvent: 7 parts by weight of dimethylformamide Emulsifier: 1 part by weight of alkylaryl polyglycol ether […] Cabbage leaves (Brassica oleracea) are treated by being dipped into the preparation of the active compound of the desired concentration and are infested with mustard beetle larvae (Phaedon cochleariae), while the leaves are still moist.

For data set [8], the system named is caterpillars of the diamond-back moth (Plutella maculipennis). Description: Plutella test. It counts as in vivo. The conditions noted are these: after 7 days; active compound concentration 0.1%; cabbage leaves dipped. The method, then: Plutella Test Solvent: 7 parts by weight of dimethylformamide Emulsifier: 1 part by weight of alkylaryl polyglycol ether […] Cabbage leaves (Brassica oleracea) are treated by being dipped into the preparation of the active compound of the desired concentration and are infested with caterpillars of the diamond-back moth (Plutella maculipennis), while the leaves are still moist.

As for `Cc1cc(C)c(-c2c(OCOCC(C)C)c(C)c(-c3ccc(Cl)cc3)oc2=O)c(C)c1` [Example 2, 6-(4-chlorophenyl)-4-[(2-methyl-1-propoxy)-methoxy]-5-methyl-3-(2,4,6-trimethylphenyl)-2-pyrone], in data set [1], the “activity in comparison with the untreated control” value (from here on “activity in comparison”) turned out to be 100%.

As to `C#CCOCOc1c(C)c(-c2ccc(F)cc2)oc(=O)c1-c1c(C)cc(C)cc1C` [Example 7], in [1], the “activity in comparison” value is 100%. The same compound returned a degree of destruction in data set [2] of 100%.

Take `C#CCOCOc1c(C)c(-c2ccccn2)oc(=O)c1-c1c(C)cc(C)cc1C` [Example 1, 5-methyl-6-(2-pyridyl)-4-propargyloxymethoxy-3-(2,4,6-trimethylphenyl)-2-pyrone]: the “activity in comparison” value in [1] is listed as 100%. The same compound came in with a degree of destruction in data set [2] of 100%. Moreover, the inhibition at 1000 ppm in data set [3] (Lucilia cuprina, read-out: activity (larvicidal / development inhibition)) was determined as 100%. Moreover, the “degree of destruction (root-systemic action)” value in [4] is 100%.

Turning to `Cc1cc(C)c(-c2c(OCOC(C)C)c(C)c(-c3ccc(F)cc3)oc2=O)c(C)c1` [Example 9], the “activity in comparison” value in data set [1] is reported as 100%. For the same compound, the degree of destruction in [2], in data set [5], in data set [6], in data set [7] and in data set [8] was 100% in each case. Also, the “activity (larvicidal / development inhibition)” value in [3] was determined as 100%.

Turning to `CCOCOc1cc(CC(C)C)oc(=O)c1-c1c(C)cc(C)cc1C` [Example 5], the degree of destruction in [5], in data set [7] and in data set [8] was 100% in each case.

Compound `Cc1cc(C)c(-c2c(OCOCC(C)C)oc(-c3ccsc3)c(C)c2=O)c(C)c1` [Example 36, 2-[(2-Methyl-1-propoxy)-methoxy]-5-methyl-6-(3-thienyl)-3-(2,4,6-trimethyl-phenyl)-4-pyrone] had a melting point of 102 to 104 °C.

For `Cc1cc(C)c(-c2c(OCOC(C)C)c(C)c(-c3cccc(C)n3)oc2=O)c(C)c1` [Example 28], the degree of destruction in data set [2], in [7] and in data set [8] was 100% each time.

`Cc1cc(C)c(-c2c(OCOC(C)C)c(C)c(C3CCCC3)oc2=O)c(C)c1` [Example 34]: the degree of destruction in data set [5] and in [8] was 100% throughout.

In turn, `C#CCOCOc1c(C)c(C2CCCC2)oc(=O)c1-c1c(C)cc(C)cc1C` [Example 33] yielded a degree of destruction in [2] of 100%.

Regarding `Cc1cc(C)c(-c2c(OCOCC(C)C)c(C)c(-c3ccc(F)cc3)oc2=O)c(C)c1` [Example 8], the “activity in comparison” value in data set [1] worked out at 100%.

`Cc1cc(C)c(-c2c(OCOCC(C)C)c(C)c(-c3cccc(C)n3)oc2=O)c(C)c1` [Example 27]: the degree of destruction in data set [2], in data set [7] and in [8] was 100% in each case.

Consider `Cc1cc(C)c(-c2c(OCOC(C)C)cc(C3(Cl)CC3)oc2=O)c(C)c1` [Example 21], for which the “activity in comparison” value in data set [1] was determined as 100%. The degree of destruction in data set [2] and in data set [6] was 100% in each case.

`CCOCOc1c(C)c(-c2ccc(F)cc2)oc(=O)c1-c1c(C)cc(C)cc1C` [Example 4]: the “activity in comparison” value in data set [1] was determined as 100%. For the same compound, the degree of destruction in [2], in data set [5], in [7] and in data set [8] was 100% in each case. Further, in [3], the “activity (larvicidal / development inhibition)” value is recorded as 100%.

Consider `CCOCOc1c(C)c(C2CCCC2)oc(=O)c1-c1c(C)cc(C)cc1C` [Example 32], for which the degree of destruction in data set [2], in data set [5] and in data set [8] was 100% in each case.

For `CCOCOc1c(C)c(-c2ccccn2)oc(=O)c1-c1c(C)cc(C)cc1C` [Example 26], the degree of destruction in [2] and in [7] was 100% each time.

In the case of `Cc1cc(C)c(-c2c(OCOCC(C)C)c(C)c(-c3ccccn3)oc2=O)c(C)c1` [Example 10], the “activity in comparison” value in data set [1] was 100%. Moreover, the “activity (larvicidal / development inhibition)” value in [3] turned out to be 100%. In addition, the degree of destruction in data set [6] and in data set [8] was 100% throughout. The “degree of destruction (root-systemic action)” value in data set [4] was found to be 100%.

Regarding `Cc1cc(C)c(-c2c(OCOC(C)C)c(C)c(-c3ccccn3)oc2=O)c(C)c1` [Example 11], the “activity in comparison” value in data set [1] came to 100%. Moreover, the degree of destruction in data set [2] and in [6] was 100% each time. Also, the “activity (larvicidal / development inhibition)” value in data set [3] is reported as 100%. Moreover, in data set [4], the “degree of destruction (root-systemic action)” value is on record as 100%.

The melting point is the temperature of the solid-liquid transition.
